By IC50 is commonly meant the concentration at which inhibition is half-maximal. Low values mean higher potency, high ones lower potency.

The source of these data is BindingDB's records for patent US8633204 (Pfizer, 2014).

Sequence of Phosphatidylinositol 4,5-bisphosphate 3-kinase catalytic subunit alpha isoform (P42337 whole entry, the tested form may be a part, canonical isoform): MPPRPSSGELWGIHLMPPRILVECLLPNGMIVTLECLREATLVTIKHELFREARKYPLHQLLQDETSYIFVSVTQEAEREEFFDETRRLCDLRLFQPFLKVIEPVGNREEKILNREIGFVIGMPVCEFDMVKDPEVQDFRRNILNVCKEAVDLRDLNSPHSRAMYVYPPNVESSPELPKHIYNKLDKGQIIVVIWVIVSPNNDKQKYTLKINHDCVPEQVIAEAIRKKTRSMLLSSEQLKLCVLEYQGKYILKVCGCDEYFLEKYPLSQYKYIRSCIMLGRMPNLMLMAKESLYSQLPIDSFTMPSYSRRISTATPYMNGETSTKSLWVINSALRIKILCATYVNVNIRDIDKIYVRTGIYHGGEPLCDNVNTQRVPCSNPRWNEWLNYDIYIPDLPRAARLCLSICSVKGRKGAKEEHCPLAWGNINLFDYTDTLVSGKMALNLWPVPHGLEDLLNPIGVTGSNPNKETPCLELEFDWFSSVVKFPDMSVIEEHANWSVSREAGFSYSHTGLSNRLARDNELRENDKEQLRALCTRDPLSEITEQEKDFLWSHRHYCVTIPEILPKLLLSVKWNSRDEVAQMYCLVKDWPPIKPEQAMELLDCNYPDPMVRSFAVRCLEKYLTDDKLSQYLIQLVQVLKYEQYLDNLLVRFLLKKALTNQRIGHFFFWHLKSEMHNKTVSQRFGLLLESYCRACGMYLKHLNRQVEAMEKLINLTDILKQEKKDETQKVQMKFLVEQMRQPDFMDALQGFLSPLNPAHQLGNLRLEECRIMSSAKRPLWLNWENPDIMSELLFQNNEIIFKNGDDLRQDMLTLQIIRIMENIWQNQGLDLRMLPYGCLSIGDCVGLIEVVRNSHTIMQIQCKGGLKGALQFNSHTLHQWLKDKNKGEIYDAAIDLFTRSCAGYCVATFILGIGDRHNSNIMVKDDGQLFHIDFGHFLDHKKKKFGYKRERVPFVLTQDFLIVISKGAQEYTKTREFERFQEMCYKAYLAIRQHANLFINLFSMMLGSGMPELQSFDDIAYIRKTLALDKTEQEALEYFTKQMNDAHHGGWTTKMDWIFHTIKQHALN

This test has as its target Phosphatidylinositol 4,5-bisphosphate 3-kinase catalytic subunit alpha isoform (Mus musculus, UniProt P42337). Briefly: Biochemical Assay. To be noted: pH 7.4; 25 °C. Here is the method: Compounds of the present invention were evaluated for potency against PI3-Kα using an in vitro kinase assay. PI3-Kα activity is measured in vitro by determining the level of phosphorylation of the substrate PI(4,5)P2. The formation of product PI(3,4,5)P3 is monitored by binding to the Grip1 PH domain in a ligand displacement fluorescence polarization (FP) assay, in which the TAMRA-labeled PI(3,4,5)P3 complexed with Grip1 PH domain is displaced by PI(3,4,5)P3 formed in the PI3-Kα reaction resulting in a decrease in FP signal.
On to `Cc1nc(N)nc2c1cc(-c1cccnc1N)c(=O)n2C1CCCC1` [US8633204, 125], for which the IC50 came to 1430 nM. That is a single-digit micromolar value.
In the case of `CCNc1nc(C)c2cc(-c3ccc(O)c(OC)c3)c(=O)n(C3CCCC3)c2n1` [US8633204, 136], the IC50 was determined as 3.08 nM.
Turning to `CCNc1nc(C)c2cc(-c3cccc(O)c3)c(=O)n(C3CCCC3)c2n1` [US8633204, 144], the midpoint of inhibition, the IC50, lay at 1.01 nM.
As to `Cc1nc(N)nc2c1cc(Br)c(=O)n2[C@H]1CC[C@H](O)CC1` [US8633204, 157], the midpoint of inhibition, the IC50, lay at 44 nM.
`Cc1nc(N)nc2c1cc(Br)c(=O)n2CC(C)(C)O` [US8633204, 167] had an IC50 of 680 nM.
For `Cc1nc(N)nc2c1cc(-c1cn[nH]c1)c(=O)n2C1CCC(=O)CC1` [US8633204, 176], inhibition was half-maximal at 12 nM (IC50).
Regarding `Cc1nc(N)nc2c1cc(-c1cnn(C)c1)c(=O)n2C1CCCC1` [US8633204, 235], the IC50 was found to be 32 nM.
